In US20110165603A1, “SMALL MOLECULE FLUORESCENT SENSORS FOR DETECTION OF POST-TRANSLATIONALMODIFICATIONS AND PROTEIN INTERACTIONS IN BIOASSAYS” (Gyrasol Technologies Inc., priority 2008, published 2011):
“Also recorded” adds a separate entry of the source.

Experiments:
recombinant PDE41A1A = recombinant PDE41A1A (Homo sapiens, UniProt P27815); test: PDE biochemical inhibition assay with fluorescein-labeled cAMP and zirconyl chloride sensor; conditions: endpoint mode, PDE4A1A 3 nM, 2 μM fluorescein-labeled cAMP, 100 μM sensor, FIG. 21A
Sequence of recombinant PDE41A1A (P27815 1-647 isoform P27815-4): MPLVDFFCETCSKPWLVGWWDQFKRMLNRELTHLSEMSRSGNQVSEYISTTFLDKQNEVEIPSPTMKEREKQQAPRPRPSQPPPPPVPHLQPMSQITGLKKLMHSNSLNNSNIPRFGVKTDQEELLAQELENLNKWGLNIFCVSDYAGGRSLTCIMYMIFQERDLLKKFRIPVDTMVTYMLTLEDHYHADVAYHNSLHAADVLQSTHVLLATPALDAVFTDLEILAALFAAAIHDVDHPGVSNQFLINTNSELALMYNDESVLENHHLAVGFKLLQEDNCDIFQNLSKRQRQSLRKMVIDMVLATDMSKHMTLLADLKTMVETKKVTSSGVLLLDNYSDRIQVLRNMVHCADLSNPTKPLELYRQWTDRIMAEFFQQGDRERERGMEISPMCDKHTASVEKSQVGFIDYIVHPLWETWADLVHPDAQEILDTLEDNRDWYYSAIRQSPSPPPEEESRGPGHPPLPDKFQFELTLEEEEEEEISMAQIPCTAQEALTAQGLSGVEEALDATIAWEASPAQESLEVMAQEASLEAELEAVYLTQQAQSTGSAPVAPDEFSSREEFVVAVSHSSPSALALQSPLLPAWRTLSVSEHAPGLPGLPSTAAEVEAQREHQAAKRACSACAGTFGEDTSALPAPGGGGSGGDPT
Description: Assays were conducted with fluorescein-labeled cAMP at 2 μM and sensor (zirconyl chloride) at 100 μM.
For biochemical assays, 2 μM fluorescein labeled cAMP was added to various concentrations of recombinant PDE4AIA and zirconyl chloride sensor was added (100 μM) following 1 hour of incubation at room temperature (FIG. 19A). […] Reactions were terminated by addition of 100 μM Zirconyl sensor. […] Reactions were terminated by addition of 100 μM Zirconyl sensor.

[1] = tested on: PKA present in 2 μg lysate; test: Multiplexed lysate assay: PKA phosphorylation of Chromeo642-labeled LRRASLG; format: biochemical, mouse; conditions: 3 μM substrate, FIG. 24B
Description: (§1) In the presence of cAMP, PKA activity is stimulated resulting in phosphorylation of labeled kemptide substrate and an increase in the delta RFU of the kemptide (right axis). PDE4A 1A hydrolyzes c-AMP to AMP resulting in an increase in the delta RFU (left axis). In the presence of the PDE inhibitor IBMX, hydrolysis of cAMP is inhibited resulting in hight concentrations of cAMP and higher PKA activities. FIG. 24B is a line graph of the change in relative fluorescence units (delta RFU) in fluorescien-labelled cAMP (1.5 μM, left axis) and Chromeo642-labeled LRRASLG (3 μM, right axis) caused by PKA present in 2 μg lysate in the presence of varying amounts of the non-selective PDE inhibitor IBMX.
(§2) Multiplexing can be accomplished using electron transfer quenching with zirconyl chloride sensor and 2 μM fluorescein labeled cAMP simultaneously with 2 μM TAMRA labeled cGMP in various concentration of mouse brain lysate.
(§3) The assay platform can be used to monitor activities of enzymes of various classes, and thus is a novel tool to connect different braches of signaling. As outlined in the schematic FIG. 24A, a phsphodiesterase-mediated cleavage of cAMP is inhibited by IBMX. As a result, increasing amounts of cAMP can bind to the regulatory domain of its downstream target, PKA. Upon binding, the regulatory subunits disassociate from the catalytic subunit and PKA becomes catalytically active.

phosphodiesterase = test: Multiplexed lysate assay: phosphodiesterase mediated cleavage of fluorescein-labeled cAMP; format: biochemical, mouse; conditions: 2 μg lysate, 1.5 μM cAMP substrate, FIG. 24B
Description: as §1, §2, §3

SMILES: CC(C)Cn1c(=O)n(C)c(=O)c2[nH]cnc21 [IBMX]
- Inhibition values (recombinant PDE41A1A): closely matched literature values
- PKA activity (delta RFU of Chromeo642-labeled LRRASLG) as a function of inhibitor concentration [1]: increasing phosphorylation of the PKA substrate Chromeo-GLRRASLG; also recorded: PKA activity increases with increasing amount of IBMX
- PDE activity (delta RFU of fluorescein-labeled cAMP) as a function of inhibitor concentration (phosphodiesterase): decreasing activity of phosphodiesterase mediated cleavage of cAMP; also recorded: PDE activity decreased with increasing amounts of IBMX
